The values that follow come from patent EP2518139A1, “Use of indirubin derivatives for producing pluripotent stem cells” (Universitätsklinikum Jena, priority 2011, dated 2012).

Experiment [1] concerns Sox2. Put plainly: Immunoblot of Sox2 expression in HFF cells. The class given is cell-based, human. The following applies: 2h. Background: In western blotting, separated proteins are transferred to a membrane and probed.
Experiment [2] concerns Smad1/5/8. Briefly: Immunoblot of p- and pan-Smad1/5/8 in HFF. The class given is cell-based, human. The following applies: BMP2 (100ng/mL), 24h. How it is done:
Cell culture: HeLa and C2C12 were cultured in DMEM containing 10% FCS and 1 % PS. HFF was cultured in DMEM containing 15% FCS and 1 %PS. NIH 3T3 was cultured in DMEM containing 10% NCS and 1% PS. The cells were maintained unter 5% CO2 at 37°C in a humidified atmosphere. After 24h preincuabtion in serum-free medium, the cells were treated with various compounds and proteins as indicated in context. Transfection of siRNA oligonuleotide against Smurf1 was reported by Zhu et al (Zhu et al., nature 2006) and synthesized by riboxx and performed using riboxx®FECT reagent according to the manufacturer's instructions. 24h after transfection, the cells were treated with BMP (100ng/mL) and Compound as indicated before lysis.
Western blot:: Cell extracts were homogenized in Urea-Lysis buffer (1mM EDTA,0.5% Triton X-100), 5mM NaF, 6M Urea, 1mM Na3VO4, 10µg/mL Pepstatin, 100µM PMSF and 3µg/mL Aprotinin in PBS). Enhanced chemiluminescence (ECL) Western blot analysis was performed. 20-40µg of total protein was resolved on 10% SDS-PAGE gels and immunoblotted with specific antibodies. Primary antibodies were incubated at a 1:1,000 dilution in TBS (pH 7.5) with 0.1% Tween-20 and 5% BSA/nonfat milk with gentle agitation overnight at 4°C. The proper secondary antibodies were incubated in TBS (pH 7.5) with 5% BSA/nonfat milk and 0.1 % Tween-20 at a 1:5,000 dilution for 1 h at room temperature. […]

The test system of experiment [3] is Smad1/5/8. Briefly: Immunostaining of pan-Smad1/5/8 in C2C12. It is filed as cell-based, mouse. The conditions noted are these: C2C12, BMP2 (100ng/mL), 12h. How it is done:
Immunostaining: The serum-depleted C2C12 cells were coinbubated with BMP2 (100ng/mL) and E738 at various concentration as indicated for 12h. Cells were fixed in 4% PFA and immunostained with Smad1/5/8 antibody (1:100) and DAPI as described previously.
To access the generality of the E738 effect on BMP/Smad, we treated C2C12, HFF and NIH 3T3 with various concentrations of E738 and probed cell extracts with p- and pan-Smad1/5/8 antibodies. […] In addition, E738 at 0.5µM concentration is already sufficient to reduce Smad1/5/8 in HFF and NIH3T3 implicating that fibroblast might be more sensitive to the IRDs treatment.

Experiment [4] has as its system HeLa cells. Briefly: Growth inhibition of HeLa cells, BMP2 versus FCS. It is filed as cell-based, human.

Structures are written as SMILES.

As for `COc1ccc2c(c1)C(=C1Nc3ccccc3C1=NOCC(O)CO)C(=O)N2` (centres unmarked) [E738], the “expression of Sox2” value in experiment [1] is on record as “stimulates expression of Sox2”. The “concentration sufficient to reduce Smad1/5/8” value in experiment [2] is reported as 0.5 µM. For the same compound, the “p- and pan-Smad1/5/8” value in experiment [2] (E738 0,5µM, 1µM and 5µM) was “decline of both”. Besides, the “pan Smad1/5/8 by immunostaining” value in experiment [3] was “depletion of pan Smad1/5/8 as early as 12h treatment”. In addition, in experiment [4], the “more efficient inhibition of HeLa cells growth in response to BMP2 than FCS” value is “above 10 fold”.
